Earlier results, collected in patent US6635280B2, “Extending the duration of drug release within the stomach during the fed mode” (DepoMed, Inc., priority 1997, dated 2003).

Conditions: oral doses administered with or following a meal

area under the plasma concentration-time curve, increase with or following a meal: two-fold to three-fold
peak plasma concentration, increase with or following a meal: two-fold to three-fold
Structure (SMILES): Cc1c(O)cccc1C(=O)N[C@@H](CSc1ccccc1)[C@H](O)CN1C[C@H]2CCCC[C@H]2C[C@H]1C(=O)NC(C)(C)C [nelfinavir]
